Reference: patent US20150045387A1, “Bi-Aromatic And Tri-Aromatic Compounds As NADPH Oxidase 2 (Nox2) Inhibitors” (The University of Surrey, priority 2011, published 2015)

Key:
[1] = system: mouse microvascular endothelial cells (SVEC4-10 cells); assay: MTT assay for cytotoxicity, SVEC4-10; type: cell-based; conditions: SVEC4-10, LMH001 5 and 10 μM, 24 h
Experimental: (§1) FIG. 8 is a graph showing no cytotoxicity of LMH001 on living mouse microvascular endothelial cells (SVEC4-10 cells) and human liver hepatocyte cells (HepG2 cells), assessed by means of an MTT assay. Cells were cultured with LMH001 (5 and 10 μM) for 24 h. MTT is a yellow tetrazolium reagent which can be converted by living cells to insoluble blue formazan crystal in the medium. The insoluble blue formazan crystals were then dissolved in DMSO and measured for absorbance at 570 nm by a plate reader. Higher absorbance corresponds to more living cells. Results are presented as mean±SD (n=3).
(§2) The mouse lymph node microvascular endothelial cell line (SVEC4-10) was from the American Type Culture Collection (CRL-2167) and grown in DMEM, containing 10% (v/v) heat inactivated foetal calf serum, 100 U/mL penicillin and […] streptomycin, in a humidified atmosphere at 37° C. with 5% CO2.
(§3) The potential cytotoxicity of LMH001 on cultured endothelial cells (SVEC4-10) and liver cells (HepG2) was assessed using the MIT assay as described previously (16). […] Absorbance was measured at 570 nm in an ELISA plate reader and the mean of 3 blank readings was subtracted from each corrected value.

[2] = system: HL-60 cells; assay: normal cell proliferation, MTS assay, HL-60; type: cell-based, human; conditions: HL-60, LMH001 up to 10 μM, 6, 12 and 24 h of culture
Experimental: (§4) A) SVEC4-10 cells and HepG2 cells were cultured in the presence or absence of LHM001 (0-10 μM) for 24 h and tested for cell proliferation using a MTS assay kit. B) HL-60 cells were cultured in the presence or absence of LMH001 (0-10 μM), and cell proliferation was examined at 6, 12 and 24 h of culture.
HL-60 is a human promyelocytic leukaemia cell line. The HL60 cells were grown in RPMI 1640 medium; containing 10% (v/v) heat inactivated foetal calf serum, 100 U/mL penicillin and […] streptomycin, in a humidified atmosphere at 37° C. with 5% CO2. HL60 cells were differentiated to the human neutrophils by culturing the cells in the culture medium in the presence of 1.25% v/v DMSO for 6 days before being used for the experiments.
(§5) The ex vivo proliferative capabilities of isolated BMSC or cultured cells were analyzed using the MTS proliferation assay. […] After 24 hours in culture medium containing LMH001 (0-10 μM), proliferation was assessed using the MTS (CellTiter 96 AQ; Promega, Madison, USA) assay according to the manufacturer's protocol. The absorbance at 490 nm was read using an ELISA plate reader (Perkin elmer), and the proliferation index calculated relative to the controls. The mean of 3 blank readings was subtracted from each corrected value.

[3] = system: human liver hepatocyte cells (HepG2); assay: cell viability by trypan blue exclusion and viable cell number counting, HepG2; type: cell-based; conditions: HepG2, LMH001 5 and 10 μM, 24 h, trypan blue exclusion
Experimental: (§6) FIG. 7 is a graph showing no cytotoxicity of LMH001 on living mouse microvascular endothelial cells (SVEC4-10) and human liver hepatocyte cells (HepG2), assessed by trypan blue exclusion and viable cell number counting. Cells were cultured with LMH001 (5 and 10 μM) for 24 h. Cell viabilities of SVEC4-10 cells and HepG2 cells in the presence of LMH001 (5 and 10 μM) were expressed as % of alive cells compared to cells in the absence of LMH001 (control, 100%). Results are presented as mean±SD (n=3).
HepG2 is a human hepatocytic cell line (ATCC No. HB-8065) that was originally derived from liver tissue with a well differentiated hepatocellular carcinoma. HepG2 cells have been proven to be a suitable in vitro model system for the study of human hepatocytes, and the study of liver metabolism and toxicity. […]
(§7) Cell viability and membrane integrity in the presence and absence of LMH001 were assessed using the trypan blue exclusion assay as described previously (15). […] At the time of experiment, cells were harvested by 0.25% Trypsin/EDTA, pelleted, resuspended in serum free medium and counted using a haemocytometer in the presence of trypan blue (0.4%) solution. The number of viable cells was calculated as a percentage of total cells.

[4] = system: HepG2 cells; assay: normal cell proliferation, MTS assay, HepG2; type: cell-based, human; conditions: HepG2, LMH001 up to 10 μM, 24 h
Experimental: as §4
(§8) HepG2 is a human hepatocytic cell line (ATCC No. HB-8065) that was originally derived from liver tissue with a well differentiated hepatocellular carcinoma. HepG2 cells have been proven to be a suitable in vitro model system for the study of human hepatocytes, and the study of liver metabolism and toxicity. HepG2 cells were grown in DMEM, containing 10% (v/v) heat inactivated foetal calf serum, 100 U/mL penicillin and […] streptomycin, in a humidified atmosphere at 37° C. with 5% CO2.
as §5

[5] = system: human lung alveolar epithelial cancer cells (A549 cells); assay: EGF-induced cell proliferation of A549 cells (cell counting); type: cell-based; conditions: LMH001 5 μM, 24 h
Experimental: A549 cells were seeded at equal number the day before experiments and then stimulated with or without […] (EGF, 10 ng/ml) for 24 h in the presence or absence of LMH001 (5 μM). Cells were then trypsinized and counted. Cell homogenates were used for measuring O2.^− production by lucigenin-chemiluminescence in the presence of NADPH (100 μM).
A549 is a human lung adenocarcinoma epithelial cell line. A549 cells were grown in DMEM, containing 10% (v/v) heat inactivated foetal calf serum, 100 U/mL penicillin and […] streptomycin, in a humidified atmosphere at 37° C. with 5% CO2.

[6] = system: human liver hepatocyte cells (HepG2 cells); assay: MTT assay for cytotoxicity, HepG2; type: cell-based; conditions: HepG2, LMH001 5 and 10 μM, 24 h
Experimental: as §1, §8, §3

[7] = system: SVEC4-10 cells; assay: normal cell proliferation, MTS assay, SVEC4-10; type: cell-based, mouse; conditions: SVEC4-10, LMH001 up to 10 μM, 24 h
Experimental: as §4, §2
The ex vivo proliferative capabilities of isolated BMSC or cultured cells were analyzed using the MTS proliferation assay. BMSC were suspended in Dulbecco's modified Eagle's medium supplemented with 5% fetal bovine serum (Sigma), 100 U/mL penicillin and 100 μg/mL streptomycin, and plated in 1% gelatin coated 96-well plates at a density of 1×10^5 cells/well in triplicate. After 24 hours in culture medium containing LMH001 (0-10 μM), proliferation was assessed using the MTS (CellTiter 96 AQ; Promega, Madison, USA) assay according to the manufacturer's protocol. The absorbance at 490 nm was read using an ELISA plate reader (Perkin elmer), and the proliferation index calculated relative to the controls. The mean of 3 blank readings was subtracted from each corrected value.

[8] = system: mouse microvascular endothelial cells (SVEC4-10); assay: cell viability by trypan blue exclusion and viable cell number counting, SVEC4-10; type: cell-based; conditions: SVEC4-10, LMH001 5 and 10 μM, 24 h, trypan blue exclusion
Experimental: as §6, §2
as §7, with “(15). Briefly, cells (1×10^6) were seeded onto 10 cm^2 culture dishes and allowed to adhere for 4 hours in 10% (v/v) FCS medium.” for “(15).”

SMILES: O=C(OCc1cccc(O)c1O)c1ccc(O)c(CO)c1 [LMH001, (2,3,-dihydroxyphenyl)methyl 4-hydroxy-3-(hydroxymethyl)benzoate]
- cytotoxicity, MTT absorbance at 570 nm [1]: no significant difference
- normal cell proliferation under physiological condition [2]: no significant effect
- cell viability (% of alive cells vs control) [3]: no significant difference
- normal cell proliferation under physiological condition [4]: no significant effect
- EGF-induced A549 cell proliferation ([5]; EGF 10 ng/ml, cells counted): inhibited completely
- A549 cell proliferation, LMH001 alone ([5]; no EGF, compared to medium only): no significant effect
- cytotoxicity, MTT absorbance at 570 nm [6]: no significant difference
- normal cell proliferation under physiological condition [7]: no significant effect
- cell viability (% of alive cells vs control) [8]: no significant difference
